Test results published in patent US20210332161A1, “CHLORINATED DERIVATIVE OF HYALURONIC ACID, METHOD OF PREPARATION THEREOF, A COMPOSITION CONTAINING THE DERIVATIVE, AND USE THEREOF” (CONTIPRO A.S., priority 2018, published 2021).
Where “and” joins values, the source holds several entries; their conditions need not be identical. Equal entries are not always repeated.

How the values were obtained:
[1] = Stability of hyaluronan chloramide on standing (DS by NMR); format: physicochemical; conditions: initial DS 85%
Experimental: 5 g of hyaluronan (Mw 2200 kg·mol^−1) were dissolved in 250 ml of distilled water. Subsequently, 2 ml of acetic acid were added and the solution was stirred at the temperature of 20° C. for 15 minutes. Then, a sodium salt of dichloroisocyanuric acid in the amount of 3.2 g (1 eq.) was added. Then, the mixture was stirred at a temperature of 20° C. for 48 hours. Subsequently, the mixture was precipitated by 2.5 litres of isopropanol and filtered. The solid portion was washed with 2 litres of isopropanol, whereupon it was vacuum dried for 20 hours. DS 85% (determined from NMR). The NMR solution (7 mg of the product in 0.7 ml of D2O) was measured after another 5 days of standing at 20° C. The DS value was determined as 84%. The solid portion in the form of powder was let stand at 20° C. for 100 days and after that the sample was dissolved in D2O. The DS value was determined as 84%.

VERO cellular substrate = test: Plaque test groups without virus (examination of the cells / of toxicity); format: cell-based, Cercopithecus aethiops; conditions: 1% in PBS, no virus
Experimental: (§1) Number of repeats −5, tested substance prepared according to Example 19, virus subject to testing: CVB3 (Nancy) in the concentration of 3×10E7, 5 PFU/ml, VERO cellular substrate
(§2) After having been subject to 10^7-fold dilution in the volume of 1.5 ml, the virus was adsorbed on the cell substrate in Petri dishes for 30 minutes. The negative control contained PBS without viruses. Afterwards, the virus was removed by suction and the cells were interlayered by the tested substance (or by HA and PBS contained in the negative control materials), incubation at 37° C. and in the presence of 5% of CO2, for 5 hours. The cells were washed with PBS and covered by a layer of a medium containing EMEM supplemented with 5% of inactivated FBS and 0.75% of agarose. The incubation in an environment containing 5% of CO2 at 37° C. for 4 days. Subsequently, the medium was removed, the cells were stained by a crystal violet dye and the counts of plaques were determined. During the test, the antiviral activity was proportional to the reduction of the number of plaques.

CVB3 (Nancy) = test: Testing of antiviral activity based on the plaque reduction; format: cell-based; conditions: for PFU on PD, Average: average of 5 repeats; for PFU on PD, Average / PFU on PD: VERO cells; for PFU on PD: single Petri dishes (5 repeats), 5 hours incubation, listed as HA chloramide
Experimental: as §1, §2

[2] = single Petri dishes (5 repeats)

Substance | DS value of the NMR solution after standing ([1]; 7 mg of product in 0.7 ml D2O, another 5 days of standing at 20° C.) [%] | DS value of the solid powder after standing ([1]; powder let stand at 20° C. for 100 days, then dissolved in D2O) [%] | PFU on PD, Average, Examination of the cells with HA (VERO cellular substrate; average of 5 repeats) [PFU] | PFU on PD, Average, Examination of toxicity (VERO cellular substrate; average of 5 repeats) [PFU] | PFU on PD, Examination of the cells with HA (VERO cellular substrate; [2]) [PFU] | PFU on PD, Examination of toxicity (VERO cellular substrate; [2]) [PFU] | PFU on PD, Average (CVB3 (Nancy); 0.1% in PBS) [PFU] | PFU on PD (CVB3 (Nancy); 0.1% in PBS) | PFU on PD, Average (CVB3 (Nancy); 0.5% in PBS) [PFU] | PFU on PD (CVB3 (Nancy); 0.5% in PBS) | PFU on PD, Average (CVB3 (Nancy); 1% in PBS) [PFU] | inhibition of the viral growth compared to the standard with HA (CVB3 (Nancy); Tests 1, 2 and 3 (0.1, 0.5, 1% in PBS), more efficient with increasing concentration)
Hyaluronan Chloramide [Example 16] | 84 | 84 |  |  |  |  |  |  |  |  |  | 
Hyaluronan Chloramide [Example 19] |  |  | 0 | 0 | 0 | 0 | 7.8 | 5 PFU and 7 PFU and 10 PFU and 8 PFU and 9 PFU | 7.2 | 8 PFU and 5 PFU and 7 PFU | 2.6 | inhibition of the viral growth
Hyaluronic acid [HA, reference compound] |  |  |  |  |  |  |  |  |  |  | 10.4 | 
